Test results reported in patent US11452731B2, “Method of treating and preventing loss of cognition” (ENDORECHERCHE, INC., priority 2009, dated 2022).
Like-named read-outs stand apart in the source and are kept apart here. Values belong to the compound of their own block, whether it stands above or below them.

Key:
[1] = Uterine and vaginal weight in ovariectomized BALB/c mice treated orally for 9 days with or without estrone (Example 3); assay type: in vivo; details: for inhibition of estrone-stimulated uterine weight / inhibition of vaginal weight (estrone-stimulated): OVX mice + estrone, oral 9 days
Description: Female BALB/c mice (BALB/cAnNCrlBR) weighing 18-20 g were obtained from Charles-River, Inc. (St-Constant, Quebec, Canada) and housed 5 per cage in a temperature (23±1° C.)- and light (12 h light/day, lights on at 7:15)-controlled environment. The mice were fed rodent chow and tap water ad libitum. The animals were ovariectomized (OVX) under Isoflurane anesthesia via bilateral flank incisions and randomly assigned to groups of 10 animals. Ten mice were kept intact as controls.
In the second experiment (Table 6), TSE 424 was administered orally by gavage once daily at doses of 1, 3, 10 or 30 μg/animal for 9 days, starting 2 days after ovariectomy. In both experiments, to evaluate the antiestrogenic activity, treatment with estrone (E1, […], s.c. injection, twice daily) was started 5 days post-ovariectomy and was administered for a 6 day-period. Compounds were dissolved in ethanol (4% final concentration) and administered in 0.4% methylcellulose. Mice in the intact and OVX control groups received the vehicle alone (4% ETOH-0.4% methylcellulose) during the 9-day period. The animals were killed by exsanguination at the abdominal aorta on the 11th morning following ovariectomy. The uteri and vagina were rapidly dissected, weighed, and kept in 10% buffered formalin for further histologic examination.

[2] = test system: MCF-7 human breast cancer cells; assay: Proliferation (DNA content) of human breast cancer MCF-7 cells (Example 7); assay type: cell-based; details: for IC50: Homo sapiens, read-out: Inhibition of 1 nM E2 stimulation of DNA by tested compounds IC50
Description: MCF-7 human breast cancer cells were obtained from the American Type Culture Collection #HTB 22 at passage 147 and routinely grown in phenol red-free Dulbecco's Modified Eagle's-Ham's F12 medium, the supplements mentioned above and 5% FBS. The MCF-7 human breast adenocarcinoma cell line was derived from the pleural effusion of a patient. MCF-7 cells were used between passages 148 and 165 and subcultured weekly
Thereafter, medium was replaced with fresh medium containing the indicated concentrations of compounds diluted from 1000×stock solutions in 99% redistilled ethanol in the presence or absence of E2. Control cells received only the ethanolic vehicle (0.1% EtOH, v/v). Cells were incubated for the specified time intervals with medium changes at 2- or 3-day intervals. Cell number was determined by measurement of DNA content.
All results are expressed as means±SEM.

[3] = test system: human Ishikawa cells; assay: Alkaline phosphatase activity in human endometrial adenocarcinoma Ishikawa cells (Example 6)
[4] = 26-week treatment of ovariectomized rats: lumbar spine BMD, total body fat, serum cholesterol, ALP (Example 4, experiment 2); assay type: in vivo, rat; details: OVX rats, 26 weeks
Description: Ten to twelve week-old female Sprague-Dawley rats (Crl:CD(SD)Br) (Charles River Laboratory, St-Constant, Canada) weighing approximately 220-270 g at start of treatment were used. […] The animals were housed individually and were allowed free access to tap water and a pelleted certified rodent feed (Lab Diet 5002, Ralston Purina, St-Louis, Mo.). Experiments were conducted in an animal facility approved by the Canadian Council on Animal Care (CCAC) and the Association for Assessment and Accreditation of Laboratory Animal Care (AAALAC) in accordance with the CCAC Guide for Care and Use of Experimental Animals. […] Treatments were initiated on day 2 of the study and were performed once daily during 26 weeks. In both experiments, animals not receiving a test article were treated with the appropriate vehicle alone during the same period. […] QDR 4500A, Hologic, Waltham, Mass.) and a Regional High Resolution Scan software. […] Samples were processed for serum preparation and frozen at -80° C. until assay. Serum cholesterol levels and alkaline phospatase activity (ALP) were determined using the Boehringer Mannheim Diagnostic Hitachi 911 Analyzer (Boehringer Mannheim Diagnostic Laboratory Systems).

[5] = 5-week treatment of ovariectomized rats with SERMs alone or with DHEA: BMD of lumbar spine, femur, tibia (Example 5); assay type: in vivo, rat; details: OVX rats, 5 weeks
Description: Ten to twelve week-old female Sprague-Dawley rats (Crl:CD(SD)Br) (Charles River Laboratory, St-Constant, Canada) weighing approximately 220-270 g at start of treatment were used. The animals were acclimatized to the environmental conditions (temperature: 22±3° C.; humidity: 50±20%; 12-h light-12-h dark cycles, lights on at 07:15 h) for at least 1 week before starting the experiments. The animals were housed individually and were allowed free access to tap water and a pelleted certified rodent feed (Lab Diet 5002, Ralston Purina, St-Louis, Mo.). Experiments were conducted in an animal facility approved by the Canadian Council on Animal Care (CCAC) and the Association for Assessment and Accreditation of Laboratory Animal Care (AAALAC) in accordance with the CCAC Guide for Care and Use of Experimental Animals.
On day 1 of the study, the animals of the appropriate groups were bilaterally ovariectomized (Ovx) under isoflurane anesthesia. The DHEA was applied topically on the dorsal skin as a solution in 50% ethanol-50% propylene glycol while the tested SERMs were administered as suspension in 0.4% methylcellulose by oral gavage. Treatments were initiated on day 2 of the study and were performed once daily during 5 weeks.
After 5 weeks of treatment, individual rats under Isoflurane anesthesia had their lumbar spine, femur and tibia scanned using dual energy x-ray absorptiometry (DEXA; QDR 4500A, Hologic, Waltham, Mass.) and a Regional High Resolution Scan software. The bone mineral density (BMD) of the lumbar spine (vertebrae L2 to L4), distal femoral metaphysis (DFM) and proximal tibial metaphysis (PTM) were determined.

[6] = OVX mice, absence of estrone, 10 μg daily (no-effect statements: 1 μg and 10 μg)
[7] = Premarin 0.25 mg/kg, SERMs 2.5 mg/kg

IC50 ([2]; MCF7, MCF-7, Experiment 2): 0.379 nM
IC50 ([3]; Homo sapiens, Ishikawa, 120 h, read-out: Inhibition of 1 nM E2-induced stimulation of alkaline phosphatase IC50): 4.24 nM
Compound: Oc1ccc2c(c1)CC[C@H](c1ccccc1)[C@@H]2c1ccc(OCCN2CCCC2)cc1 [Lasofoxifene (free base)]
inhibition of estrone-stimulated uterine weight ([1]; 1 μg daily): no inhibitory effect
inhibition of estrone-stimulated uterine weight ([1]; 3 μg daily): 25%
inhibition of estrone-stimulated uterine weight ([1]; 10 μg daily): 44%
inhibition of vaginal weight (estrone-stimulated) ([1]; 10 μg daily): 37%
stimulation of uterine weight (estrogenic effect) [1, 6]: 93%
stimulation of vaginal weight (estrogenic effect) [1, 6]: 73%
Stimulation of DNA by tested compounds % of 1 nM E2 stimulation ([2]; MCF-7, Experiment 2): N.S.
Emax ([3]; Homo sapiens, Ishikawa, 120 h, read-out: Maximal stimulation of alkaline phosphatase % of 1 nM E2 stimulation): 17.9%
Maximal inhibition of 1 nM E2-induced stimulation of alkaline phosphatase ([3]; Ishikawa cells, 5-day incubation, 1 nM E2): 85.14 (1)

IC50 ([2]; MCF7, MCF-7, Experiment 1): 3.68 nM
Compound: Cc1c(-c2ccc(O)cc2)n(Cc2ccc(OCCN3CCCCCC3)cc2)c2ccc(O)cc12 [TSE 424, 1-[[4-[2-(hexahydro-1H-azepin-1-yl)ethoxy]phenyl]methyl]-2-(4-hydroxyphenyl)-3-methyl-1H-indol-5-ol, acetate]
UTERINE WEIGHT ([1]; OVX + E1, 1 μg): 105.5 ± 6.1 mg
VAGINAL WEIGHT ([1]; OVX + E1, 1 μg): 54.2 ± 3.0 mg
UTERINE WEIGHT ([1]; OVX + E1, 3 μg): 69.7 ± 4.4 mg
VAGINAL WEIGHT ([1]; OVX + E1, 3 μg): 47.2 ± 1.6 mg
UTERINE WEIGHT ([1]; OVX + E1, 10 μg): 42.1 ± 2.7 mg
VAGINAL WEIGHT ([1]; OVX + E1, 10 μg): 31.1 ± 2.3 mg
UTERINE WEIGHT ([1]; OVX + E1, 30 μg): 21.7 ± 1.7 mg
VAGINAL WEIGHT ([1]; OVX + E1, 30 μg): 16.7 ± 1.8 mg
inhibition of estrone-stimulated uterine weight ([1]; 1 μg daily): 12%
inhibition of estrone-stimulated uterine weight ([1]; 3 μg daily): 47%
inhibition of vaginal weight (estrone-stimulated) ([1]; 3 μg daily): 16%
inhibition of estrone-stimulated uterine weight ([1]; 10 μg daily): 74%
inhibition of vaginal weight (estrone-stimulated) ([1]; 10 μg daily): 56%
inhibition of estrone-stimulated uterine weight ([1]; 30 μg daily): 94%
inhibition of vaginal weight (estrone-stimulated) ([1]; 30 μg daily): 93%
UTERINE WEIGHT ([1]; OVX without E1, 3 μg): 18.3 ± 1.2 mg
VAGINAL WEIGHT ([1]; OVX without E1, 3 μg): 14.1 ± 1.2 mg
UTERINE WEIGHT ([1]; OVX without E1, 30 μg): 17.7 ± 1.6 mg
VAGINAL WEIGHT ([1]; OVX without E1, 30 μg): 15.3 ± 2.0 mg
ALP [4]: 85 ± 6 IU
CHOLESTEROL (serum) [4]: 1.15 ± 0.05 mmol/L
TOTAL FAT [4]: 28.0 ± 1.8 %
reversal of the fat increase induced by estrogen deficiency [4]: 75%
LUMBAR SPINE BMD [4, 7]: 0.2252 ± 0.0058 g/cm^2
LUMBAR SPINE Prevention of Bone Loss [4, 7]: 49%
DISTAL FEMORAL METAPHYSIS (DFM) BMD [5]: 0.2929 ± 0.0042 g/cm^2
DISTAL FEMORAL METAPHYSIS (DFM) Prevention of Bone Loss [5]: 70%
PROXIMAL TIBIAL METAPHYSIS (PFM) BMD [5]: 0.2750 ± 0.0039 g/cm^2
PROXIMAL TIBIAL METAPHYSIS (PFM) Prevention of Bone Loss [5]: 71%
LUMBAR SPINE (L2-L4) BMD ([5]; SERMs 2.5 mg/kg, DHEA 80 mg/kg): 0.2162 ± 0.0035 g/cm^2
LUMBAR SPINE (L2-L4) Prevention of Bone Loss ([5]; SERMs 2.5 mg/kg, DHEA 80 mg/kg): 53%
